US20240382629A1, “HETEROBIVALENT AND HOMOBIVALENT AGENTS TARGETING FIBROBLAST ACTIVATION PROTEIN ALPHA AND/OR PROSTATE-SPECIFIC MEMBRANE ANTIGEN” (The Johns Hopkins University, priority 2021, published 2024)
Like-named read-outs stand apart in the source and are kept apart here. Each block holds one molecule with its values, some of them ahead of it.

Key:
SK-MEL-24 tumor = test: PET imaging and biodistribution in SK-MEL-24 tumor-bearing mice; type: in vivo, mouse; settings: SK-MEL-24 in NSG mice, 20 μCi, in %ID/g
Method: (§1) Cell uptake assays, flow cytometry, and IHC were performed as described previously. Banerjee et al., 2019; Nimmagadda et al., 2018. PET imaging and biodistribution Sequential PET imaging and biodistribution studies were conducted to quantify and validate PET imaging data. Briefly, tumor-bearing mice were administrated approximately 7.4 MBq of radiotracer in 150 μL saline via tail-vein injection. They were randomized into the indicated groups of 3-4 mice before radiotracer injection.
(§2) In Experiment 2, SK-MEL-24 tumor-bearing mice (n=3-4) were investigated.
(§3) Dose: 20 μCi, n=3 at 1 h and n=4 at 2 and 4 h per group, Tumor model: SK-MEL-24 in NSG mice

[1] = as above; type: in vivo, mouse; settings: mouse, intravenous, SK-MEL-24 in NSG mice, 20 μCi; for tissue uptake at 1 h: n=3
Method: as §1, §2, §3

PSMA = PSMA (Homo sapiens (Human), UniProt Q04609); test: PSMA competitive inhibition assay (NAAG substrate, LNCaP cell lysate); type: biochemical
Sequence of PSMA (Q04609 whole entry): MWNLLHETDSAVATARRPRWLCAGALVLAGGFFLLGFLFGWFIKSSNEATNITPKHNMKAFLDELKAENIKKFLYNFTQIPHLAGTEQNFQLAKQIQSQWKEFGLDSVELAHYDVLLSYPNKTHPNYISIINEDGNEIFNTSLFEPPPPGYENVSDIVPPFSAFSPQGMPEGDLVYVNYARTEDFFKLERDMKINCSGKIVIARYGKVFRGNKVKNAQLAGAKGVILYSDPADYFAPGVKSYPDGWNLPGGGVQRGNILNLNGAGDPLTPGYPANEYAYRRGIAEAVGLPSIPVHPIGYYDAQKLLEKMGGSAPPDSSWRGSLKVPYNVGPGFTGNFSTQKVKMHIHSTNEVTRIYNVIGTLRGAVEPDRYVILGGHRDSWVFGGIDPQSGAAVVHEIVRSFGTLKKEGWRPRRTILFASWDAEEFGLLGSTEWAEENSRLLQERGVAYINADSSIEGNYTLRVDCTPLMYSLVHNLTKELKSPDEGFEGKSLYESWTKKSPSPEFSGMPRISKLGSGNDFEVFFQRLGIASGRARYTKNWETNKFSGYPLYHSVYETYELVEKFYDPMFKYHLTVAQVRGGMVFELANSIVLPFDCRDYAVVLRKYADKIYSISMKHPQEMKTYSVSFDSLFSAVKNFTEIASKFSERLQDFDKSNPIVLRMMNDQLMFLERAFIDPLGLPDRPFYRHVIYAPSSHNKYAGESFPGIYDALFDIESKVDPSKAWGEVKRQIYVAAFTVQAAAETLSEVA
Method: (§4) PSMA binding affinities of the compounds were determined using a competitive inhibition assay as previously reported. […] FAP, prolyl endopeptidase (PREP), and […] (DPPIV) inhibition assays: Recombinant enzymes (FAP, PREP, DPPIV) were purchased from R&D Systems (Minneapolis, MN). […] Z-Gly-Pro-AMC was used as a substrate for FAP and PREP. H-Gly-Pro-AMC was used as a substrate for DPPIV. The recombinant enzyme (0.4 μg/mL) was incubated with varying amounts of the test articles in the presence of the designated substrate (80 μM) for 10 min at room temperature. Fluorescence intensity was measured with 380 nm excitation and 460 nm emission using the Cytation 5 Cell Imaging Multi-Mode Reader (BioTek, Winooski, VT). IC50 and Ki values were obtained using a sigmoidal dose-response function.

FAP+ HT-1080 tumors = test: Small animal PET/CT of ^68Ga-labeled SB-FAP-01 in FAP+ HT-1080 and wild type tumors; type: in vivo; settings: 60 minutes after intravenous administration
Method: Small animal PET/CT imaging was performed at 60 minutes after intravenous administration to this mirroring experimental model; and […]

FAP = FAP (Homo sapiens (Human), UniProt Q12884); test: FAP inhibition assay (recombinant enzyme, Z-Gly-Pro-AMC substrate); type: biochemical
Sequence of FAP (Q12884 whole entry): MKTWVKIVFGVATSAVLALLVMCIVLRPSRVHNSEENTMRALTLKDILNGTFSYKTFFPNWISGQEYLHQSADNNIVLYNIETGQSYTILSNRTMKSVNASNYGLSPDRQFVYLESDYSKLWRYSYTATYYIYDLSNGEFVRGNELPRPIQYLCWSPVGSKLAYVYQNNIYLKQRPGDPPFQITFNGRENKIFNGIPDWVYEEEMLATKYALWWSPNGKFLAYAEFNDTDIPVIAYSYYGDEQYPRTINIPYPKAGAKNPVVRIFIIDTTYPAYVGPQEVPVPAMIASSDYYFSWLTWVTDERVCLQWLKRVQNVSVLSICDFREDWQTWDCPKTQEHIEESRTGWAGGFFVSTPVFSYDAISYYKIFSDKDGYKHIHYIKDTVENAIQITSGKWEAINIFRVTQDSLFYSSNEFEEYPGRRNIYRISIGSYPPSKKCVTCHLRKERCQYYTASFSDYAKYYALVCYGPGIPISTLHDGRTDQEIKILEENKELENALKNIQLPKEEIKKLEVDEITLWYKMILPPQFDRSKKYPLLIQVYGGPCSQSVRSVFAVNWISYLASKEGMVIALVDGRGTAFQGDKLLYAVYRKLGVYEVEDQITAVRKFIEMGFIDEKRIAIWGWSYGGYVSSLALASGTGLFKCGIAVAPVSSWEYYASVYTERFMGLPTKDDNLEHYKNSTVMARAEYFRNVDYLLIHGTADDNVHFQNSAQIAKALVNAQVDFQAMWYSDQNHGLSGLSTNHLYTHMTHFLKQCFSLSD

PREP = PREP (Homo sapiens (Human), UniProt P48147); test: PREP inhibition assay (recombinant enzyme, Z-Gly-Pro-AMC substrate); type: biochemical; settings: Table 4
Sequence of PREP (P48147 whole entry): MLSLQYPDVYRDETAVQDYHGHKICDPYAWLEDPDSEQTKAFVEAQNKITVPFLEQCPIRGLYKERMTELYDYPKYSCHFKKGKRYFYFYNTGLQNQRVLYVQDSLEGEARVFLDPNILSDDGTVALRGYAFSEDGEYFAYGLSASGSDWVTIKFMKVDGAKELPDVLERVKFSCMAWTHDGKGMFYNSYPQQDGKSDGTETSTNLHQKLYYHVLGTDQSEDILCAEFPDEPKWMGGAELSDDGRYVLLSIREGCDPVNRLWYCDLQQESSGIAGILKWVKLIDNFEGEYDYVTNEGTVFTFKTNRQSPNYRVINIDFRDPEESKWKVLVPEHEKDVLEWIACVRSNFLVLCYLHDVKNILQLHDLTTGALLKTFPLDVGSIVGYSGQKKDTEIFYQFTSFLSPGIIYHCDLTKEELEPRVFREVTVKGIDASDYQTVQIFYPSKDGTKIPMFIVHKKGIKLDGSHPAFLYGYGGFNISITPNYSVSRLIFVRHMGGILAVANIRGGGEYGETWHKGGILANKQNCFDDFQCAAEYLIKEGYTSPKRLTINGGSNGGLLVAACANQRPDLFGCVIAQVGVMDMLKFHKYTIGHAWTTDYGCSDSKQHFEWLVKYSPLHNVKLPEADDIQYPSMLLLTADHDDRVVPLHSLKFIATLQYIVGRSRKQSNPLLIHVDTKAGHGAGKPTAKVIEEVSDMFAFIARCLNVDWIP
Method: as §4

DPPIV = DPPIV (Homo sapiens (Human), UniProt P27487); test: DPPIV inhibition assay (recombinant enzyme, H-Gly-Pro-AMC substrate); type: biochemical; settings: Table 4; read-out: DPPIV IC50
Sequence of DPPIV (P27487 whole entry): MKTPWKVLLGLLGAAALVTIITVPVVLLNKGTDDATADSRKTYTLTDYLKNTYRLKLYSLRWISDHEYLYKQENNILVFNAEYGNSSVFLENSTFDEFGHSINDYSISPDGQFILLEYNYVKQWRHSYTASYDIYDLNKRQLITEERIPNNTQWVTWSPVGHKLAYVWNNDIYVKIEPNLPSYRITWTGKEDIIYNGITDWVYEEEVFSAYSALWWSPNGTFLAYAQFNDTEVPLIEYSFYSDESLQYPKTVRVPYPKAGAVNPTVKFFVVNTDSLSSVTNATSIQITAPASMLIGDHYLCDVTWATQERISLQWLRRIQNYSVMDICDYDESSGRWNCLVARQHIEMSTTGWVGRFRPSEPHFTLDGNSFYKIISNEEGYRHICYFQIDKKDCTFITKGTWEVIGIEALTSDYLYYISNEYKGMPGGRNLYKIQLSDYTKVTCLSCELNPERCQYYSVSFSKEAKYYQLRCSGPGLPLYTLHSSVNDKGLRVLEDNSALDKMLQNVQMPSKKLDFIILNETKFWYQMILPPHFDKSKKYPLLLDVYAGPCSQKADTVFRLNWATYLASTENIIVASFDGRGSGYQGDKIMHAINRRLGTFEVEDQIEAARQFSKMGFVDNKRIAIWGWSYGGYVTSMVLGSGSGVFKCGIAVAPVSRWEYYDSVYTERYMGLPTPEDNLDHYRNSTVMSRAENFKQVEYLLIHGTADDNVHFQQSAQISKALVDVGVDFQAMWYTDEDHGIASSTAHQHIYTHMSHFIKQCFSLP

Biodistribution: Blood (SK-MEL-24 tumor; 1 h, n=3): 9.73 ± 0.29
Biodistribution: Bone (SK-MEL-24 tumor; 1 h, n=3): 6.00 ± 0.27
Biodistribution: Fat (SK-MEL-24 tumor; 1 h, n=3): 0.80 ± 0.31
Biodistribution: Heart (SK-MEL-24 tumor; 1 h, n=3): 4.36 ± 0.23
Biodistribution: Kidney (SK-MEL-24 tumor; 1 h, n=3): 8.08 ± 1.48
Biodistribution: Liver (SK-MEL-24 tumor; 1 h, n=3): 5.30 ± 0.77
Biodistribution: Lung (SK-MEL-24 tumor; 1 h, n=3): 7.30 ± 1.16
Biodistribution: Muscle (SK-MEL-24 tumor; 1 h, n=3): 2.99 ± 0.18
Biodistribution: Panc (SK-MEL-24 tumor; 1 h, n=3): 9.98 ± 0.99
Biodistribution: SKMEL24 (SK-MEL-24 tumor; 1 h, n=3): 13.25 ± 1.32
Biodistribution: Sm in (SK-MEL-24 tumor; 1 h, n=3): 6.52 ± 0.85
Biodistribution: Spleen (SK-MEL-24 tumor; 1 h, n=3): 3.06 ± 0.46
Biodistribution: Stomach (SK-MEL-24 tumor; 1 h, n=3): 3.29 ± 1.04
Biodistribution: Bladder (SK-MEL-24 tumor; 2 h, n=4): 4.76 ± 2.68
Biodistribution: Blood (SK-MEL-24 tumor; 2 h, n=4): 6.36 ± 0.89
Biodistribution: Bone (SK-MEL-24 tumor; 2 h, n=4): 5.61 ± 1.73
Biodistribution: Fat (SK-MEL-24 tumor; 2 h, n=4): 0.91 ± 0.83
Biodistribution: Heart (SK-MEL-24 tumor; 2 h, n=4): 2.92 ± 0.27
Biodistribution: Kidney (SK-MEL-24 tumor; 2 h, n=4): 8.05 ± 1.27
Biodistribution: Liver (SK-MEL-24 tumor; 2 h, n=4): 5.82 ± 0.72
Biodistribution: Lung (SK-MEL-24 tumor; 2 h, n=4): 5.76 ± 0.57
Biodistribution: Muscle (SK-MEL-24 tumor; 2 h, n=4): 2.24 ± 0.42
Biodistribution: Panc (SK-MEL-24 tumor; 2 h, n=4): 6.66 ± 0.38
Biodistribution: SKMEL24 (SK-MEL-24 tumor; 2 h, n=4): 12.48 ± 1.03
Biodistribution: Sm in (SK-MEL-24 tumor; 2 h, n=4): 5.44 ± 1.52
Biodistribution: Spleen (SK-MEL-24 tumor; 2 h, n=4): 2.56 ± 0.40
Biodistribution: Stomach (SK-MEL-24 tumor; 2 h, n=4): 3.20 ± 0.85
Biodistribution: Bladder (SK-MEL-24 tumor; 4 h, n=4): 4.63 ± 1.72
Biodistribution: Blood (SK-MEL-24 tumor; 4 h, n=4): 3.29 ± 0.07
Biodistribution: Bone (SK-MEL-24 tumor; 4 h, n=4): 3.42 ± 0.92
Biodistribution: Fat (SK-MEL-24 tumor; 4 h, n=4): 0.49 ± 0.14
Biodistribution: Heart (SK-MEL-24 tumor; 4 h, n=4): 1.87 ± 0.26
Biodistribution: Kidney (SK-MEL-24 tumor; 4 h, n=4): 7.26 ± 3.43
Biodistribution: Liver (SK-MEL-24 tumor; 4 h, n=4): 6.03 ± 1.00
Biodistribution: Lung (SK-MEL-24 tumor; 4 h, n=4): 4.55 ± 0.51
Biodistribution: Muscle (SK-MEL-24 tumor; 4 h, n=4): 1.32 ± 0.22
Biodistribution: Panc (SK-MEL-24 tumor; 4 h, n=4): 4.48 ± 0.88
Biodistribution: SKMEL24 (SK-MEL-24 tumor; 4 h, n=4): 9.82 ± 3.39
Biodistribution: Spleen (SK-MEL-24 tumor; 4 h, n=4): 2.69 ± 0.44
Biodistribution: Stomach (SK-MEL-24 tumor; 4 h, n=4): 2.23 ± 0.58
tissue uptake at 1 h ([1]; bladder, read-out: Biodistribution: Bladder): 3.53 ± 0.52 %ID/g
tissue uptake at 1 h ([1]; lacrimal gland, read-out: Biodistribution: Lac gl): 9.2 ± 1.74 %ID/g
tissue uptake at 2 h ([1]; lacrimal gland, 2 h, n=4, read-out: Biodistribution: Lac gl): 7 ± 2.22 %ID/g
tissue uptake at 4 h ([1]; lacrimal gland, n=4, read-out: Biodistribution: Lac gl): 3.01 ± 1.94 %ID/g
tissue uptake at 1 h ([1]; salivary gland, read-out: Biodistribution: Sal gl): 12.6 ± 2.46 %ID/g
tissue uptake at 4 h ([1]; salivary gland, n=4, read-out: Biodistribution: Sal gl): 4.47 ± 0.89 %ID/g
tissue uptake at 4 h ([1]; small intestine, n=4, read-out: Biodistribution: Sm in): 3.54 ± 0.57 %ID/g
Structure (SMILES): N#C[C@@H]1CCCN1C(=O)CNC(=O)c1ccnc2ccc(OCCCNC(=O)CCc3cn(CCOCCOCCOCCOCCOCCOCCC(=O)N[C@@H](CCCCNC(=O)CN4CCN(CC(=O)O)CCN(CC(=O)O)CC4)C(=O)NCCCCC(=O)N(CCCC[C@H](NC(=O)N[C@@H](CCC(=O)O)C(=O)O)C(=O)O)Cc4ccc(Br)cc4)nn3)cc12

Structure (SMILES): N#C[C@@H]1CCCN1C(=O)CNC(=O)c1ccnc2ccc(OCCCNC(=O)CCc3cn(CCOCCOCCOCCC(=O)N[C@@H](CCCCNC(=O)CN4CCN(CC(=O)O)CCN(CC(=O)O)CCN(CC(=O)O)CC4)C(=O)NCCCCC(=O)N(CCCC[C@H](NC(=O)N[C@@H](CCC(=O)O)C(=O)O)C(=O)O)Cc4ccc(Br)cc4)nn3)cc12 [SB-FAP-01, (14S,27S,31S)-22-(4-bromobenzyl)-1-(4-(3-((3-((4-((2-((S)-2-cyanopyrrolidin-1-yl)-2-oxoethyl)carbamoyl)quinolin-6-yl)oxy)propyl)amino)-3-oxopropyl)-1H-1,2,3-triazol-1-yl)-12,15,21,29-tetraoxo-14-(4-(2-(4,7,10-tris(carboxymethyl)-1,4,7,10-tetraazacyclododecan-1-yl)acetamido)butyl)-3,6,9-trioxa-13,16,22,28,30-pentaazatritriacontane-27,31,33-tricarboxylic acid]
Ki (PSMA; 95% CI, read-out: PSMA Binding affinity Ki (95% CI)): 7.3 to 37.9 nM
IC50 (PSMA; Table 4): 83.2 nM
Ki (PSMA; Table 4, read-out: PSMA Ki): 16.6 nM
Ki (PSMA; read-out: PSMA Binding affinity Ki): 16.6 nM
PET/CT tumor imaging (FAP+ HT-1080 tumors): able to image tumors derived from FAP+ HT-1080 human fibrosis cells engineered to overexpressed FAP, but not those which are not
Ki (FAP; 95% CI, read-out: FAP Binding affinity Ki (95% CI)): 0.25 to 0.51 nM
IC50 (FAP; Table 4): 1.79 nM
Ki (FAP; Table 4, read-out: FAP Ki): 0.36 nM
Ki (FAP; read-out: FAP Binding affinity Ki): 0.36 nM
IC50 (PREP): 350 nM
IC50 (DPPIV): 16900 nM
